Results on 31 molecules are retold here after US8853207B2 (Development Center for Biotechnology, priority 2012, dated 2014).

The IC50 is the concentration that gives 50% inhibition.

Counter-ions that a name gives are not always drawn.

This assay deals with FLT3 kinase (FLT3 kinase domain alone, Upstate) (Homo sapiens (Human), UniProt P36888). In words: FLT3 kinase assay ([33P] incorporation into substrate). In kind it is biochemical. The following applies: 100 μM ATP, 30° C., 30 minutes; read-out: IC50 against FLT3. As for the experimental part: Inhibition of FLT3 kinase activity by compounds disclosed herein was quantified by measuring the amount of [^33P] incorporated into the substrate in the presence of a test compound. Briefly, a reaction mixture of 25 μL final volume containing 5 ng of FLT3 kinase (FLT3 kinase domain alone, Upstate), 5 μg of the substrate [(Poly (Glu-Tyr, 4:1), Sigma], kinase reaction buffer (20 mM MOPS pH 7.0, 1 mM EDTA, 5% glycerol, 0.01% Brij-35, 0.1% β-mercaptoethanol, 1 mg/mL BSA, 100 μM ATP, 0.1 μCi per well [^33P]-γ-ATP (2,500-3,000 Ci/mmol)), and a test compound (diluted from 9 μM to the desired final concentration by 4% DMSO) or DMSO (as the control) was incubated at 30° C. for 30 minutes. The reaction was stopped by adding 5 μL of 3% phosphoric acid solution. The resultant solution (30 μL) was later harvested by a UniFilter Plate GF/B (PerkinElmer) followed by adding 30 μL of the scintillation cocktail (MicroScint 20, PerkinElmer) to the well. The radioactivity retained on the filter membrane was measured by a luminescence counter (PerkinElmer). The results were analyzed by using linear regression software (GraphPad Prism 4; GraphPad Software Inc.).
Sequence of FLT3 kinase (FLT3 kinase domain alone, Upstate) (P36888 610-943): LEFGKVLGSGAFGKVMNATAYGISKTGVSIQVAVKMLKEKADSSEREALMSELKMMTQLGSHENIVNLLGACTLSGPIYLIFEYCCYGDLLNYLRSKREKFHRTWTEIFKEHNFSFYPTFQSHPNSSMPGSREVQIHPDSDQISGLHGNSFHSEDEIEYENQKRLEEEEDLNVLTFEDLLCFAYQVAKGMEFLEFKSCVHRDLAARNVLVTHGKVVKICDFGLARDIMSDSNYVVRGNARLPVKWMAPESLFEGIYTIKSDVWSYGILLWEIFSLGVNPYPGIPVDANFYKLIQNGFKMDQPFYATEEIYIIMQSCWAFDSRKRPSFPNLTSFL
Take `FC(F)(F)c1ccc(Nc2n[nH]c3c2Cc2sccc2-3)cc1` [Example-35, (4,7-Dihydro-1-thia-4,5-diaza-cyclopenta[a]pentalen-6-yl)-(4-trifluoromethyl-phenyl)-amine]: the IC50 lay within 0.1 to 0.499 µM.

For the molecule `FC(F)(F)c1cc(-c2n[nH]c3c2Cc2sccc2-3)cc(C(F)(F)F)c1` [Example-43, 6-(3,5-Bis-trifluoromethyl-phenyl)-4,7-dihydro-1-thia-4,5-diaza-cyclopenta[a]pen talene], the IC50 was over 1 µM.

With `COc1ccc(-c2n[nH]c3c2Cc2sc(-c4cccc(N)c4)cc2-3)cc1` [Example-86, 3-[6-(4-Methoxy-phenyl)-4,7-dihydro-1-thia-4,5-diaza-cyclopenta[a]pentalen-2-yl]-phenylamine], the IC50 is under 0.1 µM.

On to `Nc1cccc(-c2n[nH]c3c2Cc2sccc2-3)c1` [Example-59, 3-(4,7-Dihydro-1-thia-4,5-diaza-cyclopenta[a]pentalen-6-yl)-phenylamine hydrochloride], for which the IC50 was 0.1 to 0.499 µM.

Turning to `Oc1ccc(-c2ccc(-c3n[nH]c4c3Cc3sccc3-4)cc2)cc1` [Example-11, 4′-(4,7-Dihydro-1-thia-4,5-diaza-cyclopenta[a]pentalen-6-yl)-biphenyl-4-ol], the IC50 is under 0.1 µM.

With `Clc1cc(Cl)cc(-c2n[nH]c3c2Cc2sccc2-3)c1` [Example-57, 6-(3,5-Dichloro-phenyl)-4,7-dihydro-1-thia-4,5-diaza-cyclopenta[a]pentalene], the half-inhibitory concentration (IC50) was 0.1 to 0.499 µM.

`Brc1cc2c(s1)Cc1c(-c3ccccc3)n[nH]c1-2` [Example-27]: the IC50 was under 0.1 µM.

Regarding `Nc1ccc(-c2n[nH]c3c2Cc2sccc2-3)cn1` [Example-66, 5-(4,7-Dihydro-1-thia-4,5-diaza-cyclopenta[a]pentalen-6-yl)-pyridin-2-ylamine hydrochloride], the IC50 is under 0.1 µM.

As to “6-(2-Fluoro-phenyl)-4,7-dihydro-1-thia-4,5-diaza-cyclopenta[a]pentalene [Example-41]”, the 50% inhibitory concentration (IC50) is under 0.1 µM.

For `Nc1ccc(-c2n[nH]c3c2C(=O)c2sccc2-3)cc1` [Example-56, 6-(4-Amino-phenyl)-4H-1-thia-4,5-diaza-cyclopenta[a]pentalen-7-one], the IC50 is under 0.1 µM.

On to `c1cc2c(s1)Cc1c(-c3ccc(N4CCOCC4)cc3)n[nH]c1-2` [Example-85, 6-(4-Morpholin-4-yl-phenyl)-4,7-dihydro-1-thia-4,5-diaza-cyclopenta[a]pentalene], for which the concentration for half-maximal inhibition (IC50) is under 0.1 µM.

`O=C1c2sccc2-c2[nH]nc(-c3ccc(Br)nc3)c21` [Example-68, 6-(6-Bromo-pyridin-3-yl)-4H-1-thia-4,5-diaza-cyclopenta[a]pentalen-7-one]: the IC50 lay in the range of 0.5 to 1 µM.

Turning to `FC(F)(F)c1ccc(-c2ccc(-c3n[nH]c4c3Cc3sccc3-4)cc2)cc1` [Example-19, 6-(4′-Trifluoromethyl-biphenyl-4-yl)-4,7-dihydro-1-thia-4,5-diaza-cyclopenta[a]pentalene], the half-maximal inhibitory concentration (IC50) is over 1 µM.

In the case of `Ic1ccc(Nc2n[nH]c3c2Cc2sccc2-3)cc1` [Example-22, (4,7-Dihydro-1-thia-4,5-diaza-cyclopenta[a]pentalen-6-yl)-(4-iodo-phenyl)-amine], the IC50 is 0.1 to 0.499 µM.

Consider `c1cc(-c2n[nH]c3c2Cc2sccc2-3)ccn1` [Example-60, 6-Pyridin-4-yl-4,7-dihydro-1-thia-4,5-diaza-cyclopenta[a]pentalene], for which the IC50 is under 0.1 µM.

Take `FC(F)(F)c1cccc(Nc2n[nH]c3c2Cc2sccc2-3)c1` [Example-29, (4,7-Dihydro-1-thia-4,5-diaza-cyclopenta[a]pentalen-6-yl)-(3-trifluoromethyl-phenyl)-amine]: the half-inhibitory concentration (IC50) was under 0.1 µM.

For the molecule `Brc1ccc(-c2n[nH]c3c2Cc2sc(Br)cc2-3)cc1` [Example-33, 2-Bromo-6-(4-bromo-phenyl)-4,7-dihydro-1-thia-4,5-diaza-cyclopenta[a]pentalene], the IC50 was under 0.1 µM.

Regarding `COc1ccc(-c2n[nH]c3c2Cc2sc(-c4cnc(N)nc4)cc2-3)cc1` [Example-79, 5-[6-(4-Methoxy-phenyl)-4,7-dihydro-1-thia-4,5-diaza-cyclopenta[a]pentalen-2-yl]-pyrimidin-2-ylamine], the 50% inhibitory concentration (IC50) was under 0.1 µM.

For the molecule `c1cncc(-c2n[nH]c3c2Cc2sccc2-3)c1` [Example-16, 6-Pyridin-3-yl-4,7-dihydro-1-thia-4,5-diaza-cyclopenta[a]pentalene], the half-inhibitory concentration (IC50) was 0.1 to 0.499 µM.

As to `c1cncc(Nc2ccc(-c3n[nH]c4c3Cc3sccc3-4)cc2)c1` [Example-63, [4-(4,7-Dihydro-1-thia-4,5-diaza-cyclopenta[a]pentalen-6-yl)-phenyl]-pyridin-3-yl-amine], the IC50 was under 0.1 µM.

`FC(F)(F)Oc1ccccc1Nc1n[nH]c2c1Cc1sccc1-2` [Example-48, (4,7-Dihydro-1-thia-4,5-diaza-cyclopenta[a]pentalen-6-yl)-(2-trifluoromethoxy-phenyl)-amine]: the IC50 is over 1 µM.

For the molecule `Brc1ccc(Nc2n[nH]c3c2Cc2sccc2-3)cc1` [Example-20, (4-Bromo-phenyl)-(4,7-dihydro-1-thia-4,5-diaza-cyclopenta[a]pentalen-6-yl)-amine], the IC50 fell in the range of 0.1 to 0.499 µM.

Turning to `N#Cc1ccc(-c2ccc(-c3n[nH]c4c3Cc3sccc3-4)cc2)cc1` [Example-15, 4′-(4,7-Dihydro-1-thia-4,5-diaza-cyclopenta[a]pentalen-6-yl)-biphenyl-4-carbonitrile], the half-inhibitory concentration (IC50) was under 0.1 µM.

For the molecule `COc1ccc(-c2cc3c(s2)Cc2c(-c4ccc(OC)cc4)n[nH]c2-3)cc1` [Example-73, 2,6-Bis-(4-methoxy-phenyl)-4,7-dihydro-1-thia-4,5-diaza-cyclopenta[a]pentalene], the concentration for half-maximal inhibition (IC50) is under 0.1 µM.

Consider `Clc1ccc(Nc2n[nH]c3c2Cc2sccc2-3)cc1Cl` [Example-53, (3,4-Dichloro-phenyl)-(4,7-dihydro-1-thia-4,5-diaza-cyclopenta[a]pentalen-6-yl)-amine], for which the concentration for half-maximal inhibition (IC50) was in the range of 0.1 to 0.499 µM.

As for `Oc1ccc(-c2n[nH]c3c2Cc2sccc2-3)cc1` [Example-93, 4-(4,7-Dihydro-1-thia-4,5-diaza-cyclopenta[a]pentalen-6-yl)-phenol], the IC50 was under 0.1 µM.

For the molecule `COc1ccccc1-c1n[nH]c2c1Cc1sccc1-2` [Example-51, 6-(2-Methoxy-phenyl)-4,7-dihydro-1-thia-4,5-diaza-cyclopenta[a]pentalene], the IC50 is under 0.1 µM.

With `Brc1cccc(Nc2n[nH]c3c2Cc2sccc2-3)c1` [Example-36, (3-Bromo-phenyl)-(4,7-dihydro-1-thia-4,5-diaza-cyclopenta[a]pentalen-6-yl)-amine], the half-inhibitory concentration (IC50) lay in the range of 0.1 to 0.499 µM.

For `COc1ccc(-c2n[nH]c3c2Cc2sc(-c4ccc(OC)c(F)c4)cc2-3)cc1` [Example-83, 2-(3-Fluoro-4-methoxy-phenyl)-6-(4-methoxy-phenyl)-4,7-dihydro-1-thia-4,5-diaza-cyclopenta[a]pentalene], the half-inhibitory concentration (IC50) was under 0.1 µM.

In the case of `Clc1cccc(Nc2n[nH]c3c2Cc2sccc2-3)c1Cl` [Example-54, (2,3-Dichloro-phenyl)-(4,7-dihydro-1-thia-4,5-diaza-cyclopenta[a]pentalen-6-yl)-amine], the concentration for half-maximal inhibition (IC50) lay within 0.1 to 0.499 µM.

For `Clc1cc(Cl)cc(Nc2n[nH]c3c2Cc2sccc2-3)c1` [Example-49, (3,5-Dichloro-phenyl)-(4,7-dihydro-1-thia-4,5-diaza-cyclopenta[a]pentalen-6-yl)-amine], the IC50 lay within 0.1 to 0.499 µM.
